# In patent US20060223875A1, “Methods and compositions for production, formulation and use of 1-aryl-3-azabicyclo[3.1.0]hexanes” (priority 2005, published 2006):
# Read-outs that look alike come from different tables or passages of the source.
# Assays:
# [1] = molecular target: serotonin (5-HT) transporter (Rattus norvegicus, UniProt P31652); assay: Inhibition of [3H]5-HT uptake in rat whole brain synaptosomes; assay type: biochemical
# Experimental: (§1) The effects of 1-aryl-3-azabicyclo[3.1.0]hexanes of the invention for inhibiting transport of norepinephrine (NE) and/or dopamine (DA) and/or serotonin (5-HT) were evaluated using preparations of synaptosomes from different regions of the rat brain according to previously-reported techniques (Perovic and Muller, 1995, Janowsky et al., 1986). The subject assay methods are art-accepted models for generally assessing and predicting activities of drugs that modulate biogenic amine transport in mammals.
# (§2) Whole brains were obtained from normal rats, and synaptosomal preparations were made from either whole brain (5-HT), striatum (DA) or hypothalamus (NE) by gentle disruption in 10 volumes (w/v) of 0.32 M sucrose (0-4° C.) using a Teflon-glass homogenizer. The homogenate was then centrifuged at 1000×g for 10 min. The supernatant was retained and centrifuged at 23000 g for 20 min. The resulting pellet was gently resuspended in 200 volumes of 0.32 M sucrose (0-4° C.) using a teflon-glass homogenizer. Aliquots (250 μL) of this preparation were added to tubes, along with 0.2 μCi/mL of [^3H]5-HT, [^3H]DA, or [^3H]NE, 200 μL of selected 1-aryl-3-azabicyclo[3.1.0]hexane test compounds (to yield final concentrations of 100 nM, 300 nM, 1 μM, 3 μM, 10 μM, 30 μM or 100 μM) and 1 mL of Krebs-Ringer bicarbonate buffer (pH 7.4). The mixtures were incubated for either 15 (DA and 5-HT uptake) or 20 (NE uptake) minutes at 37° C. At the end of this period, the assay was terminated by rapid filtration over Whatman GF/C glass fiber filters. The filters were rinsed 3 times with 4 ml of Krebs-Ringer bicarbonate buffer (0-4° C.), and the radioactivity retained on the filters was measured by liquid scintillation spectrometry. The results of these assays are shown in Table 3, below, which indicates, for each of the exemplary, aza-substituted compounds, the structure of the substituent, and levels of observed uptake inhibition for each of the indicated neurotransmitters. Also provided in the table is a multi-target “inhibition profile”, expressing a ratio of observed inhibition for each of the aza-substituted bicifadine across a panel of the three indicated neurotransmitters.
# [2] = molecular target: norepinephrine (NE) transporter (Rattus norvegicus, UniProt Q9WTR4); assay: Inhibition of [3H]NE uptake in rat hypothalamus synaptosomes; assay type: biochemical
# Chain of norepinephrine (NE) transporter (Q9WTR4 1-597): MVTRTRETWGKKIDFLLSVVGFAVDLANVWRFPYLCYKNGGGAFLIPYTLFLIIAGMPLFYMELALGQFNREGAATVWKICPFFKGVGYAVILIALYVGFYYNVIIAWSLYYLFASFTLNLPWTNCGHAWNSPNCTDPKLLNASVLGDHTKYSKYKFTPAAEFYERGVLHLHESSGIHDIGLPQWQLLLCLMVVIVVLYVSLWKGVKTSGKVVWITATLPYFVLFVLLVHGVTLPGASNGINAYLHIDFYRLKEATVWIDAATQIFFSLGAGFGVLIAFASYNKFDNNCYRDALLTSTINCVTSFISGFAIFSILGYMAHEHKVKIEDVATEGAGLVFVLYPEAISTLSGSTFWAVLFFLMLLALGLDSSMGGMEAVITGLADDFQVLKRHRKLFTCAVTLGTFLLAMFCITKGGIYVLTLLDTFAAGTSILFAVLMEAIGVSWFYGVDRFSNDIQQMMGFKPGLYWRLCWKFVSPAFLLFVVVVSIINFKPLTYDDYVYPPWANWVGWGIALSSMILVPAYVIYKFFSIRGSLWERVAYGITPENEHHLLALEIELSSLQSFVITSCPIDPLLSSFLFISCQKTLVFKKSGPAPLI
# Experimental: as §1, §2
# [3] = molecular target: dopamine (DA) transporter (Rattus norvegicus, UniProt P23977); assay: Inhibition of [3H]DA uptake in rat striatum synaptosomes; assay type: biochemical
# Chain of dopamine (DA) transporter (P23977 whole entry): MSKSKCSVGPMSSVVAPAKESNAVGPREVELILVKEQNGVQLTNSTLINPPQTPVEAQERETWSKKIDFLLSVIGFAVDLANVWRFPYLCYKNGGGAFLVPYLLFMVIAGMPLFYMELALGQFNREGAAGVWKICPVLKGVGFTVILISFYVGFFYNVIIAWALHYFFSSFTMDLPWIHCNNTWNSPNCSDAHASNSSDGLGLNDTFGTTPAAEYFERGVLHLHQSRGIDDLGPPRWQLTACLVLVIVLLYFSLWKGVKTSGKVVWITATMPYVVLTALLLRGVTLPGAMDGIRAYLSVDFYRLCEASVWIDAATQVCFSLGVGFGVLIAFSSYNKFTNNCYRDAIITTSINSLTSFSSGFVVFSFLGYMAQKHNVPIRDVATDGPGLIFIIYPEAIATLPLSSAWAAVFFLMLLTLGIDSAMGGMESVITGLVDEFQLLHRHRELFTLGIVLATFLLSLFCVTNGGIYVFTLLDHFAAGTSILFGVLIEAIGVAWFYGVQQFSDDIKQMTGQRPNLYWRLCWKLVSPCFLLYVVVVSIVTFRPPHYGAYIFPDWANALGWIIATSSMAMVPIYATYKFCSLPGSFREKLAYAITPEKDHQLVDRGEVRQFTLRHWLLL
# Experimental: as §1, §2
# [4] = tested on: reuptake of norepinephrine, serotonin, and dopamine; conditions: cited from earlier work
# [5] = orally administered single dose; 150 mg bicifadine, 650 mg aspirin; cited from earlier work
# [6] = dental surgery patients; cited from earlier work
# [7] = rat whole brain synaptosomes, [3H]5-HT, 15 min, 37° C., read-out: Inhibition of 5-HT Uptake (IC50)
# [8] = rat hypothalamus synaptosomes, [3H]NE, 20 min, 37° C., read-out: Inhibition of NE Uptake (IC50)
# [9] = rat striatum synaptosomes, [3H]DA, 15 min, 37° C., read-out: Inhibition of DA Uptake (IC50)
# Chain of serotonin (5-HT) transporter (P31652 whole entry): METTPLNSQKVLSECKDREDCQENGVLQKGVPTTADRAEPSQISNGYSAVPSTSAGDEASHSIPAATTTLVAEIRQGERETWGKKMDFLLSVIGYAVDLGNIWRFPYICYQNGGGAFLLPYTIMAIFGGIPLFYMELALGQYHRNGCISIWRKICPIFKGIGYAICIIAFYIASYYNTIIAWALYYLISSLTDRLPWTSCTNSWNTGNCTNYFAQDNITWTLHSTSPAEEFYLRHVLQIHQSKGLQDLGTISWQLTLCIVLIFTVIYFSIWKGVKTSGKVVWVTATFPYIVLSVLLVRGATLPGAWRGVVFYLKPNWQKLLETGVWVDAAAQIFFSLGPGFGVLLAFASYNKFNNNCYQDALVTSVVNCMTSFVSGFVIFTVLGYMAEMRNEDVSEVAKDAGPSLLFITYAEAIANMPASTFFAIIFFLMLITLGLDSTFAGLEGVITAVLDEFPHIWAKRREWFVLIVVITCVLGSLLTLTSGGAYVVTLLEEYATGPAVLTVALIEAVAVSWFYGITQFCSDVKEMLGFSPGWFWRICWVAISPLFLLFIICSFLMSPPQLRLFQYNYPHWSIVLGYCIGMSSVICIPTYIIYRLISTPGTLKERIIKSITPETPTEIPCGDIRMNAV
SMILES,"IC50 [1, 7] [nM]","IC50 [2, 8] [nM]","IC50 [3, 9] [nM]",other results
"CN1CC2CC2(c2ccc(C(F)(F)F)cc2)C1 (stereo not shown) [CH3,4-CF3, 3-Methyl-1-(4-trifluoromethylphenyl)-3-aza-bicyclo[3.1.0]hexane]",130,2600,–,–
"Cc1ccc(C23CC2CN(C(C)C)C3)cc1 (stereo not shown) [i-C3H7,4-CH3, 3-Isopropyl-1-p-tolyl-3-aza-bicyclo[3.1.0]hexane]",170,230,610,–
"Cc1ccc(C23CC2CN(C(C)(C)C)C3)cc1 (stereo not shown) [t-C4H9,4-CH3]",7600,2700,7300,–
"CN1CC2CC2(c2cccc(Cl)c2)C1 (stereo not shown) [CH3,3-Cl, 1-(3-Chlorophenyl)-3-methyl-3-aza-bicyclo[3.1.0]hexane]",–,–,–,IC50 [1]: 270 nM; IC50 [2]: 83 nM; IC50 [3]: 1300 nM
"CN1CC2CC2(c2ccc(F)cc2)C1 (stereo not shown) [CH3,4-F, 1-(4-Fluorophenyl)-3-methyl-3-aza-bicyclo[3.1.0]hexane]",–,–,–,IC50 [1]: 3400 nM; IC50 [2]: 170 nM; IC50 [3]: 3800 nM
"Cl.Clc1ccc(C23CNCC2C3)cc1Cl (stereo not shown) [1-(3,4-dichlorophenyl)-3-azabicyclo[3.1.0]hexane hydrochloride]",–,–,–,"inhibition of reuptake of norepinephrine, serotonin, and dopamine [4]: inhibit reuptake of all three of these biogenic amines"
"CCCN1CC2CC2(c2ccc(C)cc2)C1 (stereo not shown) [n-C3H7,4-CH3, 3-Propyl-1-p-tolyl-3-aza-bicyclo[3.1.0]hexane]",760,1400,2700,–
"Cc1ccc(C23CC2CN(C)C3)cc1 (stereo not shown) [CH3,4-CH3, 3-Methyl-1-p-tolyl-3-aza-bicyclo[3.1.0]hexane]",–,–,–,IC50 [1]: 190 nM; IC50 [2]: 150 nM; IC50 [3]: 960 nM
"Cc1ccc(C23CC2CN(CC(F)(F)F)C3)cc1 (stereo not shown) [C2H2F3,4-CH3]",25000,–,48000,–
"CCN1CC2CC2(c2ccc(C)cc2)C1 (stereo not shown) [C2H5,4-CH3, 3-Ethyl-1-p-tolyl-3-aza-bicyclo[3.1.0]hexane]",–,–,–,IC50 [1]: 240 nM; IC50 [2]: < 100 nM; IC50 [3]: < 100 nM
"COCCN1CC2CC2(c2ccc(C)cc2)C1 (stereo not shown) [C3H7O, 4-CH3, 3-(2-Methoxyethyl)-1-p-tolyl-3-aza-bicyclo[3.1.0]hexane]",8000,6500,10000,–
CC(=O)Oc1ccccc1C(=O)O [aspirin],–,–,–,analgesic activity compared to placebo [5]: Significant analgesic activity
"CN1CC2CC2(c2ccc(CN)cc2)C1 (stereo not shown) [CH3,4-CH2NH2, (4-(3-Methyl-3-aza-bicyclo[3.1.0]hexan-1-yl)phenyl)methanamine]",7400,–,8500,–
"Cc1ccc(C23CNCC2C3)cc1.Cl (stereo not shown) [bicifadine, 1-p-Tolyl-3-aza-bicyclo[3.1.0]hexane hydrochloride, reference compound]",130,130,1300,"analgesic activity compared to placebo [5]: Significant analgesic activity; analgesia relative to codeine and tramadol [6]: analgesia comparable to the narcotic, codeine and the narcotic-like agent tramadol"
